Data as given in US7612064B2, “Sulfopyrroles” (Takeda Pharmaceutical Company Limited, priority 2003, dated 2009).

Experiments:
[1] = Hoechst 33342 nuclear staining; type: cell-based; details: 24 h or 48 h incubation; for Hoechst 33342 nuclear staining score, HeLa: HeLa cells; for Hoechst 33342 nuclear staining score, Jurkat: Jurkat cells;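 as to all read-outs here: apoptotic nuclei scored 0 none 1 weak under 50% of cells 2 strong over 50% of cells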
Method: This assay is performed in 96 well tissue culture plates. Appropriate number of cells (adherent cells: 3-5*10^3, suspension cells: 8-10*10^3) are being seeded out in 80 μl complete medium. Adherent cells are incubated for 24 h for proper spreading out before addition of test compounds while suspension cells are immediately treated with test compounds after seeding out. The test compounds are added in 20 μl complete medium containing max 5% DMSO. […] […] The assay plates are then further incubated for 30 min and subsequently analyzed with a standard inverted fluorescence microscope.
The readout allows the determination of the fraction of apoptotic nuclei as well as other morphological criteria specific for apoptosis as a function of the treatment. The following scores are used: 0 relating to no activity, 1 relating to weak activity comprising less than 50% of the cells and score 2 relating to strong activity comprising more than 50% of the cells.

HeLa = assay: MTS proliferation assay; type: cell-based, human; details: 72 h
Method: (§1) The assay is performed in 96 well tissue culture plates. […] The test compounds are added in 20 μl complete medium containing max 5% DMSO. The final compound concentrations in the assays are 10 μM, 3 μM, 1 μM and 0.3 μM, respectively. The assay plates are incubated for 72 h at culture conditions. The MTS reagent is prepared according to the manufacturer's protocol (Promega G1111). 20 μl MTS reagent are added to each well, the assay plates are quickly spun and incubated for another 3 h at culture conditions. Subsequently, the plates are shortly shacked and absorption measured with a microplate-reader at 492 nm.

MRC5 = assay: MTS proliferation assay; type: cell-based; details: MRC5, 72 h
Method: as §1

[2] = conc 0.1 (final concentrations in μM)
[3] = conc 0.3 (final concentrations in μM)
[4] = conc 1 (final concentrations in μM)
[5] = conc 3 (final concentrations in μM)

Compound: Cc1ccc(S(=O)(=O)n2cc(CNCCCN(C)C)cc2-c2ccc3c(c2)OCO3)cc1.Cl.Cl [2 × 2HCl]
- Hoechst 33342 nuclear staining score, HeLa [1, 2]: 0
- Hoechst 33342 nuclear staining score, HeLa [1, 3]: 0
- Hoechst 33342 nuclear staining score, HeLa [1, 4]: 0
- Hoechst 33342 nuclear staining score, HeLa [1, 5]: 0
- Hoechst 33342 nuclear staining score, Jurkat [1, 2]: 0
- Hoechst 33342 nuclear staining score, Jurkat [1, 3]: 0
- Hoechst 33342 nuclear staining score, Jurkat [1, 4]: 0
- Hoechst 33342 nuclear staining score, Jurkat [1, 5]: 0

Compound: CCN(Cc1cc(-c2cccs2)n(S(=O)(=O)c2ccc(C)cc2)c1)c1ccc(OC)cc1OC [Example 1, 4(N-2,4-Dimethoxyphenyl-N-ethylaminomethyl)-2-(2-thienyl)-1-(p-toluene-sulfonyl)-pyrrole]
- IC50 (HeLa): > 1000 nM
- IC50 (MRC5): > 1000 nM

Compound: Cc1ccc(S(=O)(=O)n2cc(CNCCCN(C)C)cc2-c2ccc3c(c2)OCO3)cc1 [Example 2, 4-(N-[3-Dimethylaminopropyl]-aminomethyl)-2-(3,4-methylenedioxyphenyl)-1-(p-toluenesulfonyl)-pyrrole]
- IC50 (HeLa; Homo sapiens): > 1000 nM
- IC50 (MRC5; Homo sapiens): > 1000 nM
- Hoechst 33342 nuclear staining score, HeLa [1, 2]: 0
- Hoechst 33342 nuclear staining score, HeLa [1, 3]: 0
- Hoechst 33342 nuclear staining score, HeLa [1, 4]: 0
- Hoechst 33342 nuclear staining score, HeLa [1, 5]: 0
- Hoechst 33342 nuclear staining score, Jurkat [1, 2]: 0
- Hoechst 33342 nuclear staining score, Jurkat [1, 3]: 0
- Hoechst 33342 nuclear staining score, Jurkat [1, 4]: 0
- Hoechst 33342 nuclear staining score, Jurkat [1, 5]: 0

Compound: Cc1ccc(S(=O)(=O)n2cc(CNCCc3ccccc3)cc2-c2cccs2)cc1 [Example 7]
- IC50 (HeLa): > 1000 nM
- Hoechst 33342 nuclear staining score, HeLa [1, 2]: 0
- Hoechst 33342 nuclear staining score, HeLa [1, 3]: 0
- Hoechst 33342 nuclear staining score, HeLa [1, 4]: 0
- Hoechst 33342 nuclear staining score, HeLa [1, 5]: 0
- Hoechst 33342 nuclear staining score, Jurkat [1, 2]: 0
- Hoechst 33342 nuclear staining score, Jurkat [1, 3]: 0
- Hoechst 33342 nuclear staining score, Jurkat [1, 4]: 0
- Hoechst 33342 nuclear staining score, Jurkat [1, 5]: 0

Compound: Cc1ccc(S(=O)(=O)n2cc(CNc3ccc(N4CCOCC4)cc3)cc2-c2cccs2)cc1 [Example 9]
- IC50 (HeLa): > 1000 nM
- Hoechst 33342 nuclear staining score, HeLa [1, 2]: 0
- Hoechst 33342 nuclear staining score, HeLa [1, 3]: 0
- Hoechst 33342 nuclear staining score, HeLa [1, 4]: 0
- Hoechst 33342 nuclear staining score, HeLa [1, 5]: 1 (weak activity comprising less than 50% of the cells)
- Hoechst 33342 nuclear staining score, Jurkat [1, 2]: 0
- Hoechst 33342 nuclear staining score, Jurkat [1, 3]: 0
- Hoechst 33342 nuclear staining score, Jurkat [1, 4]: 0
- Hoechst 33342 nuclear staining score, Jurkat [1, 5]: 2 (strong activity comprising more than 50% of the cells)

Compound: Cc1ccc(S(=O)(=O)n2cc(CNCCCc3ccccc3)cc2-c2ccc3c(c2)OCO3)cc1 [Example 10]
- IC50 (HeLa): > 1000 nM
- IC50 (MRC5): > 1000 nM
- Hoechst 33342 nuclear staining score, HeLa [1, 2]: 0
- Hoechst 33342 nuclear staining score, HeLa [1, 3]: 0
- Hoechst 33342 nuclear staining score, HeLa [1, 4]: 0
- Hoechst 33342 nuclear staining score, HeLa [1, 5]: 0
- Hoechst 33342 nuclear staining score, Jurkat [1, 2]: 0
- Hoechst 33342 nuclear staining score, Jurkat [1, 3]: 0
- Hoechst 33342 nuclear staining score, Jurkat [1, 4]: 0
- Hoechst 33342 nuclear staining score, Jurkat [1, 5]: 0

Compound: COc1ccc(CCNCc2cc(-c3ccc4c(c3)OCO4)n(S(=O)(=O)c3ccc(C)cc3)c2)cc1 [Example 11]
- IC50 (HeLa): > 1000 nM
- Hoechst 33342 nuclear staining score, HeLa [1, 2]: 0
- Hoechst 33342 nuclear staining score, HeLa [1, 3]: 0
- Hoechst 33342 nuclear staining score, HeLa [1, 4]: 0
- Hoechst 33342 nuclear staining score, HeLa [1, 5]: 0
- Hoechst 33342 nuclear staining score, Jurkat [1, 2]: 0
- Hoechst 33342 nuclear staining score, Jurkat [1, 3]: 0
- Hoechst 33342 nuclear staining score, Jurkat [1, 4]: 0
- Hoechst 33342 nuclear staining score, Jurkat [1, 5]: 0
